Measurements: patent publication US10144737B2 (ETERNITY BIOSCIENCE INC., priority 2014, dated 2018)

Assays:
TMD-8 cells = assay: Cell proliferation assay (CellTiter-Glo), TMD-8 cells; type: cell-based; settings: Homo sapiens, TMD8, 120 h, 5-day treatment, read-out: TMD8 cell growth (GI50 μM)
Method: Cell proliferation assay: TMD-8 and SU-DHL-1 cells were maintained at 37° C. in a humidified atmosphere with 5% CO2 in the recommended medium and serum concentrations. For cell proliferation assay, cells were seeded in 96-well pates at a density of 5,000 to 10,000 cells per well and cultured overnight at 37° C. in recommended medium supplemented with 5-10% FBS. On the next day, the test articles at various concentrations or vehicle control (0.5% DMSO) were added into cell culture. After 5-day treatment, the growth of cells was assayed by the CellTiter-Glo® Luminestceaent Cell Viability Assay (Promega). IC50 values were calculated using GraphPad Prism by plotting the logarithm of the concentration versus percent inhibition of cell growth as compared with the vehicle control.

Btk = molecular target: T1, Btk (Homo sapiens, UniProt Q06187); assay: Btk kinase assay (ADP-Glo); type: biochemical; settings: ADP-Glo Btk kinase assay kit; ATP 1.2 μM; 60 minutes at room temperature
T1 construct: purchased Promega (Madison, Wis.)
T1 sequence (Q06187 whole entry): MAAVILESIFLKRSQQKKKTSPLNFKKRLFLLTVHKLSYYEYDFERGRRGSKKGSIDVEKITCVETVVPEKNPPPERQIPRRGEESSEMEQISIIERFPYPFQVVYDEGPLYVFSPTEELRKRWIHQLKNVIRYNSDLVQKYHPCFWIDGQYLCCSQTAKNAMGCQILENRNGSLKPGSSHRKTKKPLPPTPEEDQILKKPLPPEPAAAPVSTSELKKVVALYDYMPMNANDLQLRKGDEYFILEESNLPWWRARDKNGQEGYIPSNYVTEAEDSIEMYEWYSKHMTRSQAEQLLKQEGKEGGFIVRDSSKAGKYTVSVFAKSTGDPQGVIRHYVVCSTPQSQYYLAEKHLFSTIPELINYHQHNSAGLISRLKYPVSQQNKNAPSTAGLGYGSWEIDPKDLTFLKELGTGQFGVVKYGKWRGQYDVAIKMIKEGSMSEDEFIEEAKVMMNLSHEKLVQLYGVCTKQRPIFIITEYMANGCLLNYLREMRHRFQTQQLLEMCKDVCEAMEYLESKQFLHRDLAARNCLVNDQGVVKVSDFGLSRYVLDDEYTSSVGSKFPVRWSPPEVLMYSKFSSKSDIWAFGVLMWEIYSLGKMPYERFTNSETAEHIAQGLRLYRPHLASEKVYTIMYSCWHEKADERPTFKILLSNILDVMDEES
Method: Btk kinase assay—The Btk kinase assay was performed using a ADP-Glo Btk kinase assay kit purchased from Promega (Madison, Wis.). The assay was conducted according to the protocols provided in the assay kit. In brief, the enzyme reaction was carried out in the kinase reaction buffer containing Btk (2 ng/μl), ATP (1.2 μM), poly GT peptide (0.3 μM), DTT (40 nM), MnCl2 (1.4 mM), and 1 xkinase buffer (included in the kit) in the presence or absence of the tested articles at various concentrations in 384-well plate at room temperature (22±1° C.) for 60 minutes. The final reaction volume for each reaction was 10 μl. Then, 4 μl of ADP-Glo reagent (included in the kit) was added into the reaction and the plate was further incubated for another 40 minutes to terminate the reaction and deplete the remaining ATP. Finally, 10 μl of the kinase detection reagent was added into each reaction to simultaneously convert ADP to ATP and allow the newly synthesized ATP to be measured by a plate-reading luminometer (Victor X5 2030 multilabel reader, PerkinElmer). IC50 value was calculated using appropriate programs in GraphPad Prism by plotting the logarithm of the concentration versus percent inhibition as compared with a vehicle (DMSO) control.

| Compound | IC50 (Btk) | GI50 (TMD-8 cells) |
| --- | --- | --- |
| C=CC(=O)N1CC[C@@H](Nc2ncnc3[nH]c(C#Cc4ccc5ccccc5c4)cc23)C1 [Example 71, (R)-1-(3-((6-(naphthalen-2-ylethynyl)-7H-pyrrolo[2,3-d]pyrimidin-4-yl)amino)pyrrolidin-1-yl)prop-2-en-1-one] | 10 nM | 0.001 µM |
| C=CC(=O)Nc1cccc(Nc2ncnc3[nH]c(C#Cc4ccsc4)cc23)c1 [Example 104, N-(3-((6-(thiophen-3-ylethynyl)-7H-pyrrolo[2,3-d]pyrimidin-4-yl)amino)phenyl)acrylamide] | 6 nM | 0.017 µM |
| C/C=C/C(=O)N1CC[C@@H](Nc2ncnc3[nH]c(C#CCOc4ccccc4F)cc23)C1 [Example 48, (R,E)-1-(3-((6-(3-(2-fluorophenoxy)prop-1-yn-1-yl)-7H-pyrrolo[2,3-d]pyrimidin-4-yl)amino)pyrrolidin-1-yl)but-2-en-1-one] | 432 nM | 0.088 µM |
| C=CC(=O)N1CCC(Nc2ncnc3[nH]c(C#CCOc4cc(F)cc(F)c4)nc23)C1 (centres unmarked) [Example 17, 1-(3-((8-(3-(3,5-difluorophenoxy)prop-1-yn-1-yl)-9H-purin-6-yl)amino)pyrrolidin-1-yl)prop-2-en-1-one] | 212 nM | 0.25 µM |
| CN(C)C/C=C/C(=O)N1CC[C@@H](Nc2ncnc3[nH]c(C#Cc4ccccc4F)cc23)C1 [Example 52, (R,E)-4-(dimethylamino)-1-(3-((6-((2-fluorophenyl)ethynyl)-7H-pyrrolo[2,3-d]pyrimidin-4-yl)amino)pyrrolidin-1-yl)but-2-en-1-one] | 6 nM | 0.187 µM |
| C=CC(=O)N1CC[C@@H](Nc2ncnc3[nH]c(C#Cc4ccccc4F)cc23)C1 [Example 51, (R)-1-(3-((6-((2-fluorophenyl)ethynyl)-7H-pyrrolo[2,3-d]pyrimidin-4-yl)amino)pyrrolidin-1-yl)prop-2-en-1-one] | 18 nM | 0.016 µM |
| C=CC(=O)N1CC[C@@H](Nc2ncnc3[nH]c(C#Cc4ccc(Cl)cc4)cc23)C1 [Example 63, (R)-1-(3-((6-((4-chlorophenyl)ethynyl)-7H-pyrrolo[2,3-d]pyrimidin-4-yl)amino)pyrrolidin-1-yl)prop-2-en-1-one] | 4.8 nM | 0.0027 µM |
| C=CC(=O)N1CCN(c2ncnc3[nH]c(C#CCOc4ccccc4)cc23)CC1 [Example 1, 1-(4-(6-(3-phenoxyprop-1-yn-1-yl)-7H-pyrrolo[2,3-d]pyrimidin-4-yl)piperazin-1-yl)prop-2-en-1-one] | 109 nM | 0.054 µM |
| C=CC(=O)N1CC[C@@H](Nc2ncnc3[nH]c(C#CCOc4ccccc4OC(F)(F)F)cc23)C1 [Example 81, (R)-1-(3-((6-(3-(2-(trifluoromethoxy)phenoxy)prop-1-yn-1-yl)-7H-pyrrolo[2,3-d]pyrimidin-4-yl)amino)pyrrolidin-1-yl)prop-2-en-1-one] | 33 nM | 0.003 µM |
| CN(C)C/C=C/C(=O)N1CCN(c2ncnc3[nH]c(C#CCOc4ccccc4)nc23)CC1 [Example 7, (E)-4-(dimethylamino)-1-(4-(8-(3-phenoxyprop-1-yn-1-yl)-9H-purin-6-yl)piperazin-1-yl)but-2-en-1-one] | 3 nM | 0.141 µM |
| C=CC(=O)N1CCN(c2ncnc3[nH]c(C#CCOc4ccccc4)nc23)CC1 [Example 6, 1-(4-(8-(3-phenoxyprop-1-yn-1-yl)-9H-purin-6-yl)piperazin-1-yl)prop-2-en-1-one] | 16.4 nM | 0.019 µM |
| C=CC(=O)N1CC[C@@H](Nc2ncnc3[nH]c(C#CCOc4c(F)cccc4OC)cc23)C1 [Example 88, (R)-1-(3-((6-(3-(2-fluoro-6-methoxyphenoxy)prop-1-yn-1-yl)-7H-pyrrolo[2,3-d]pyrimidin-4-yl)amino)pyrrolidin-1-yl)prop-2-en-1-one] | 18 nM | 0.02 µM |
| C=CC(=O)N1CCC(Nc2ncnc3[nH]c(C#CCOc4ccc(OC)cc4)nc23)C1 (centres unmarked) [Example 27, 1-(3-((8-(3-(4-methoxyphenoxy)prop-1-yn-1-yl)-9H-purin-6-yl)amino)pyrrolidin-1-yl)prop-2-en-1-one] | 16 nM | 0.094 µM |
| O=C(/C=C/CN1CCOCC1)N1CCC(Nc2ncnc3[nH]c(C#CCOc4ccccc4)cc23)C1 (centres unmarked) [Example 36, (E)-4-morpholino-1-(3-((6-(3-phenoxyprop-1-yn-1-yl)-7H-pyrrolo[2,3-d]pyrimidin-4-yl)amino)pyrrolidin-1-yl)but-2-en-1-one] | 127 nM | 0.552 µM |
| CN(C)C/C=C/C(=O)N1CCC(N(C)c2ncnc3[nH]c(C#CCOc4ccccc4)cc23)C1 (centres unmarked) [Example 39, (E)-4-(dimethylamino)-1-(3-(methyl(6-(3-phenoxyprop-1-yn-1-yl)-7H-pyrrolo[2,3-d]pyrimidin-4-yl)amino)pyrrolidin-1-yl)but-2-en-1-one] | 192 nM | 0.299 µM |
| O=C(C1CC1)N1CC[C@@H](Nc2ncnc3[nH]c(C#CCOc4ccccc4F)cc23)C1 [Example 93, (R)-cyclopropyl(3-((6-(3-(2-fluorophenoxy)prop-1-yn-1-yl)-7H-pyrrolo[2,3-d]pyrimidin-4-yl)amino)pyrrolidin-1-yl)methanone] | 578 nM | 4.2 µM |
| C=CC(=O)N1CC[C@@H](Nc2ncnc3[nH]c(C#Cc4ccc(F)cc4)cc23)C1 [Example 62, (R)-1-(3-((6-((4-fluorophenyl)ethynyl)-7H-pyrrolo[2,3-d]pyrimidin-4-yl)amino)pyrrolidin-1-yl)prop-2-en-1-one] | 52 nM | 0.024 µM |
| O=C(/C=C/c1cccs1)N1CCC(Nc2ncnc3[nH]c(C#CCOc4ccccc4)cc23)C1 (centres unmarked) [Example 37, (E)-1-(3-((6-(3-phenoxyprop-1-yn-1-yl)-7H-pyrrolo[2,3-d]pyrimidin-4-yl)amino)pyrrolidin-1-yl)-3-(thiophen-2-yl)prop-2-en-1-one] | 1180 nM | – |

The next compounds have a lower IC50 (Btk) than those just listed; values first:

| IC50 (Btk) | Compound | GI50 (TMD-8 cells) |
| --- | --- | --- |
| 1 nM | C=CC(=O)N1CCC(Nc2ncnc3[nH]c(C#CCOc4ccccc4OC)nc23)C1 (centres unmarked) [Example 25, 1-(3-((8-(3-(2-methoxyphenoxy)prop-1-yn-1-yl)-9H-purin-6-yl)amino)pyrrolidin-1-yl)prop-2-en-1-one] | 0.006 µM |
| 0.3 nM | CN(C)C/C=C/C(=O)N1CCC(Nc2ncnc3[nH]c(C#CCOc4ccccc4)cc23)C1 (centres unmarked) [Example 34, (E)-4-(dimethylamino)-1-(3-((6-(3-phenoxyprop-1-yn-1-yl)-7H-pyrrolo[2,3-d]pyrimidin-4-yl)amino)pyrrolidin-1-yl)but-2-en-1-one] | 0.107 µM |
| 1.9 nM | C=CC(=O)N1CCC(Nc2ncnc3[nH]c(C#CCOc4cccc(Cl)c4)nc23)C1 (centres unmarked) [Example 13, 1-(3-((8-(3-(3-chlorophenoxy)prop-1-yn-1-yl)-9H-purin-6-yl)amino)pyrrolidin-1-yl)prop-2-en-1-one] | 0.019 µM |
| 0.3 nM | C=CC(=O)N1CC[C@@H](Nc2ncnc3[nH]c(C#CCOc4ccccc4)cc23)C1 [Example 40, (R)-1-(3-((6-(3-phenoxyprop-1-yn-1-yl)-7H-pyrrolo[2,3-d]pyrimidin-4-yl)amino)pyrrolidin-1-yl)prop-2-en-1-one] | 0.004 µM |
| 2.6 nM | C=CC(=O)N1CCC(Nc2ncnc3[nH]c(C#CCOc4ccccc4)nc23)C1 (centres unmarked) [Example 9, 1-(3-((8-(3-phenoxyprop-1-yn-1-yl)-9H-purin-6-yl)amino)pyrrolidin-1-yl)prop-2-en-1-one] | 0.012 µM |
| 0.1 nM | C=CC(=O)N1CC[C@@H](Nc2ncnc3[nH]c(C#Cc4ccc5sccc5c4)cc23)C1 [Example 73, (R)-1-(3-((6-(benzo[b]thiophen-5-ylethynyl)-7H-pyrrolo[2,3-d]pyrimidin-4-yl)amino)pyrrolidin-1-yl)prop-2-en-1-one] | 0.001 µM |
| 0.7 nM | COc1cccc(OCC#Cc2nc3c(NC4CCN(C(=O)/C=C/CN(C)C)C4)ncnc3[nH]2)c1 (centres unmarked) [Example 29, (E)-1-(3-((8-(3-(3-methoxyphenoxy)prop-1-yn-1-yl)-9H-purin-6-yl)amino)pyrrolidin-1-yl)-4-(dimethylamino)but-2-en-1-one] | 1.21 µM |
| 0.04 nM | COc1ccccc1OCC#Cc1cc2c(N[C@@H]3CCN(C(=O)/C=C/CN(C)C)C3)ncnc2[nH]1 [Example 46, (R,E)-1-(3-((6-(3-(2-methoxyphenoxy)prop-1-yn-1-yl)-7H-pyrrolo[2,3-d]pyrimidin-4-yl)amino)pyrrolidin-1-yl)-4-(dimethylamino)but-2-en-1-one] | 0.017 µM |
| 0.2 nM | C=CC(=O)N1CC[C@@H](Nc2ncnc3[nH]c(C#CCOc4ccccc4OC)nc23)C1 [Example 102, (R)-1-(3-((8-(3-(2-methoxyphenoxy)prop-1-yn-1-yl)-9H-purin-6-yl)amino)pyrrolidin-1-yl)prop-2-en-1-one] | 0.004 µM |
